Molecular target: T1, LpSOGP (Lachnoclostridium phytofermentans, UniProt A9KJS6)
T1 construct: gene Cphy_0694
T1 sequence (A9KJS6 1-1113): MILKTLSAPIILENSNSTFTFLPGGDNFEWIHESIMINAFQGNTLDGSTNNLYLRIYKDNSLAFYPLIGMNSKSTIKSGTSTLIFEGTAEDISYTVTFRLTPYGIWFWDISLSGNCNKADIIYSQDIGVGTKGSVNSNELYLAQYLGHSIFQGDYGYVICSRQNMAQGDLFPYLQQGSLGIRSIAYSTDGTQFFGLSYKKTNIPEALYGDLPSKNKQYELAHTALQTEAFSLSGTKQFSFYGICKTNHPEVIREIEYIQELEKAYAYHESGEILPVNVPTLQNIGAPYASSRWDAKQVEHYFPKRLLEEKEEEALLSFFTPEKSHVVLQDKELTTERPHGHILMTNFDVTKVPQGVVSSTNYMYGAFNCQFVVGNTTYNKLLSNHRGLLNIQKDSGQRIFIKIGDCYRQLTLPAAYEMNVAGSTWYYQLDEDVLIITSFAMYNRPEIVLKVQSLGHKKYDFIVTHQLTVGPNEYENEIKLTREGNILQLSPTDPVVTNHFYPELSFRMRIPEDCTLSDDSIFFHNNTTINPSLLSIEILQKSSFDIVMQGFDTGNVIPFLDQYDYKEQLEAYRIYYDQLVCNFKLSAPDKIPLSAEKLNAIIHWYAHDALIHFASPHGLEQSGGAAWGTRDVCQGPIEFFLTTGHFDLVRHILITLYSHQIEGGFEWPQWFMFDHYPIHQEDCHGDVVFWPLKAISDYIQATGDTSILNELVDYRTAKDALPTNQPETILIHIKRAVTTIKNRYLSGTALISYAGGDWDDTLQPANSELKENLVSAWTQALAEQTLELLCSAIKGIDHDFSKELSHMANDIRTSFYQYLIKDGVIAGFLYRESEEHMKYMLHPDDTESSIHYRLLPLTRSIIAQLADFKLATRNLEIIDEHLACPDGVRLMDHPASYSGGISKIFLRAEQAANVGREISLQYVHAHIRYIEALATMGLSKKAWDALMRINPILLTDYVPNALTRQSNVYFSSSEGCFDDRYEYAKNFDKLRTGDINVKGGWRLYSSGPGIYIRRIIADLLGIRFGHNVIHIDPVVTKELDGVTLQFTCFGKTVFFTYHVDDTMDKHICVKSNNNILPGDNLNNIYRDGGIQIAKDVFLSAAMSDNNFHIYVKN
Details: phosphorolysis; pH 7.5, 30 °C; co-substrate oligosaccharide not stated
Text: G1P release, coupled phosphoglucomutase / G6PDH assay, Michaelis-Menten fit on LpSOGP

Synthesis / kcat/Km / (s^-1 mM^-1): 11 ± 1 mM
SMILES: O=P(O)(O)O [Pi, inorganic phosphate]

Reference: paper PMC5309861, “Mechanistic insight into the substrate specificity of 1,2-β-oligoglucan phosphorylase from Lachnoclostridium phytofermentans” (Scientific Reports, 2017)
